Measurements from patent publication US20260347364A1, “PYRAZOLO[4,3-F]QUINAZOLINE DERIVATIVES AS MODULATORS OF G12D MUTANT KRAS USEFUL FOR THE TREATMENT OF CANCER” (JAZZ PHARMACEUTICALS IRELAND LTD., priority 2023, published 2026).

Assays:
KRAS WT = target: T1, KRAS WT (Homo sapiens, UniProt P01116); assay: HTRF nucleotide exchange assay, KRAS WT; assay type: biochemical; conditions: class symbols; for IC50: HTRF nucleotide exchange assay (NEA)
T1 construct: aa1-188 KRAS WT

KRAS G12D = target: T2, KRAS G12D (Homo sapiens, UniProt P01116, G12D); assay: HTRF nucleotide exchange assay, KRAS G12D; assay type: biochemical; conditions: HTRF nucleotide exchange assay (NEA), class symbols
T2 construct: aa1-188 KRAS WT, HRAS WT, NRAS WT, or KRAS containing the G12D
T2 sequence (P01116 1-188 isoform P01116-2 G12D): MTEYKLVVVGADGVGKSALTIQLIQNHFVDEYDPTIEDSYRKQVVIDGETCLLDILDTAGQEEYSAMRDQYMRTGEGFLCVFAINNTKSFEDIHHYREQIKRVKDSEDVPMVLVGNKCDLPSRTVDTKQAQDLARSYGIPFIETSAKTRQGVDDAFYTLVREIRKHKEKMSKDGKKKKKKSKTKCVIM

T1 sequence (P01116 1-188 isoform P01116-2): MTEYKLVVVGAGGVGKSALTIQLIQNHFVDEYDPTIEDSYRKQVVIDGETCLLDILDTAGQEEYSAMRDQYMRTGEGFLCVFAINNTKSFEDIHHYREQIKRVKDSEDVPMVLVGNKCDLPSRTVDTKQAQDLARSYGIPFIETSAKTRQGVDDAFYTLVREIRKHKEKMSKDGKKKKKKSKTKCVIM

| SMILES | KRAS^WT NEA (KRAS WT) | IC50 (KRAS G12D) [nM] | IC50 (KRAS WT) [nM] |
| --- | --- | --- | --- |
| CCc1c(F)ccc2cc(O)cc(-c3cc4nc(OCC56CCCN5CCC6)nc(N5CCCC(C)(O)CC5)c4c4cn(C)nc34)c12 (stereo not drawn) [Example 27, 1-[4-(8-ethyl-7-fluoro-3-hydroxy-1-naphthyl)-7-(1,2,3,5,6,7-hexahydropyrrolizin-8-ylmethoxy)-2-methyl-pyrazolo[4,3-f]quinazolin-9-yl]-4-methyl-azepan-4-ol] | – | 100 to 10000 | 100 to 10000 |
| CCc1c(F)ccc2cc(O)cc(-c3cc4nc(OC[C@@]56CCCN5C[C@H](F)C6)nc(N5CC6CCC(C5)C6C#N)c4c4cn(C)nc34)c12 (stereo partly drawn) [Example 210, 3-[4-(8-ethyl-7-fluoro-3-hydroxy-1-naphthyl)-7-[[(2R,8S)-2-fluoro-1,2,3,5,6,7-hexahydropyrrolizin-8-yl]methoxy]-2-methyl-pyrazolo[4,3-f]quinazolin-9-yl]-3-azabicyclo[3.2.1]octane-8-carbonitrile] | – | 10 to 100 | 10 to 100 |
| CCc1c(F)ccc2cc(O)cc(-c3c(F)c4nc(OCC5(CN6CC[C@@H](O)C6)CC5)nc(N5CCOCC(C)(O)C5)c4c4cn(C)nc34)c12 (stereo partly drawn) [Example 194, 4-[4-(8-ethyl-7-fluoro-3-hydroxy-1-naphthyl)-5-fluoro-2-methyl-7-[[1-[[(3R)-3-hydroxypyrrolidin-1-yl]methyl]cyclopropyl]methoxy]pyrazolo[4,3-f]quinazolin-9-yl]-6-methyl-1,4-oxazepan-6-ol] | – | ≤ 10 | ≤ 10 |
| CCc1c(F)ccc2cc(O)cc(-c3c(F)c4nc(OCC5(CF)COC5)nc(N5CCOCC(C)(O)C5)c4c4cn(C)nc34)c12 (stereo not drawn) [Example 163, 4-[4-(8-ethyl-7-fluoro-3-hydroxy-1-naphthyl)-5-fluoro-7-[[3-(fluoromethyl)oxetan-3-yl]methoxy]-2-methyl-pyrazolo[4,3-f]quinazolin-9-yl]-6-methyl-1,4-oxazepan-6-ol] | – | ≤ 10 | ≤ 10 |
| C#Cc1c(F)ccc2cc(O)cc(-c3c(F)c4nc(OC[C@@]56CCCN5C[C@H](F)C6)nc(N5CCCn6nc(C(=O)N(C)C)cc6C5)c4c4cn(C)nc34)c12 [Example 93, 5-[4-(8-ethynyl-7-fluoro-3-hydroxy-1-naphthyl)-5-fluoro-2-methyl-7-[[(2R,8S)-2-fluoro-1,2,3,5,6,7-hexahydropyrrolizin-8-yl]methoxy]pyrazolo[4,3-f]quinazolin-9-yl]-N,N-dimethyl-4,6,7,8-tetrahydropyrazolo[1,5-a][1,4]diazepine-2-carboxamide] | – | ≤ 10 | ≤ 10 |
| CCc1c(F)ccc2cc(O)cc(-c3c(F)c4nc(OCC5(CF)COC5)nc(N5CCCn6nc(C(=O)N(C)C)cc6C5)c4c4cn(C)nc34)c12 [Example 206, 5-[4-(8-ethyl-7-fluoro-3-hydroxy-1-naphthyl)-5-fluoro-7-[[3-(fluoromethyl)oxetan-3-yl]methoxy]-2-methyl-pyrazolo[4,3-f]quinazolin-9-yl]-N,N-dimethyl-4,6,7,8-tetrahydropyrazolo[1,5-a][1,4]diazepine-2-carboxamide] | – | ≤ 10 | 10 to 100 |
| CCc1c(F)ccc2cc(O)cc(-c3c(F)c4nc(OCC56COC(COC)(C5)C6)nc(N5CCCn6nc(C(=O)N(C)C)cc6C5)c4c4cn(C)nc34)c12 [Example 208, 5-[4-(8-ethyl-7-fluoro-3-hydroxy-1-naphthyl)-5-fluoro-7-[[1-(methoxymethyl)-2-oxabicyclo[2.1.1]hexan-4-yl]methoxy]-2-methyl-pyrazolo[4,3-f]quinazolin-9-yl]-N,N-dimethyl-4,6,7,8-tetrahydropyrazolo[1,5-a][1,4]diazepine-2-carboxamide] | – | ≤ 10 | 10 to 100 |
| Cn1cc2c(n1)c(-c1cc(O)ccc1F)cc1nc(OC[C@@]34CCCN3C[C@H](F)C4)nc(N3CCCOCC3)c12 [Example 5] | D (<49% inhibition at 10 μM) | 100 to 10000 | – |
| CCc1c(F)ccc2cc(O)cc(-c3c(C)c4nc(OC[C@@]56CCCN5C[C@H](F)C6)nc(N5CCC[C@@](C)(O)C5)c4c4cn(C)nc34)c12 [Example 95, (3R)-1-[4-(8-ethyl-7-fluoro-3-hydroxy-1-naphthyl)-2,5-dimethyl-7-[[(2R,8S)-2-fluoro-1,2,3,5,6,7-hexahydropyrrolizin-8-yl]methoxy]pyrazolo[4,3-f]quinazolin-9-yl]-3-methyl-piperidin-3-ol] | – | ≤ 10 | ≤ 10 |
| CCc1c(F)ccc2cc(O)cc(-c3c(C)c4nc(OC[C@@H]5CCCN5C)nc(N5CCOCC(C)(O)C5)c4c4cn(C)nc34)c12 (stereo partly drawn) [Example 138, 4-[4-(8-ethyl-7-fluoro-3-hydroxy-1-naphthyl)-2,5-dimethyl-7-[[(2S)-1-methylpyrrolidin-2-yl]methoxy]pyrazolo[4,3-f]quinazolin-9-yl]-6-methyl-1,4-oxazepan-6-ol] | – | ≤ 10 | ≤ 10 |
| CCc1c(F)ccc2cc(O)cc(-c3cc4nc(OCC5(CN6CCOCC6)CC5)nc(N5CCCn6nc(C(=O)N(C)C)cc6C5)c4c4cn(C)nc34)c12 [Example 69, 5-[4-(8-ethyl-7-fluoro-3-hydroxy-1-naphthyl)-2-methyl-7-[[1-(morpholinomethyl)cyclopropyl]methoxy]pyrazolo[4,3-f]quinazolin-9-yl]-N,N-dimethyl-4,6,7,8-tetrahydropyrazolo[1,5-a][1,4]diazepine-2-carboxamide] | – | ≤ 10 | 10 to 100 |
| CCc1c(F)ccc2cc(O)cc(-c3cc4nc(OCC56CCCN5CCC6)nc(N5CCOCC(C)(O)C5)c4c4cn(C)nc34)c12 (stereo not drawn) [Example 26, 4-[4-(8-ethyl-7-fluoro-3-hydroxy-1-naphthyl)-7-(1,2,3,5,6,7-hexahydropyrrolizin-8-ylmethoxy)-2-methyl-pyrazolo[4,3-f]quinazolin-9-yl]-6-methyl-1,4-oxazepan-6-ol] | – | ≤ 10 | ≤ 10 |
| CCc1c(F)ccc2cc(O)cc(-c3c(F)c4nc(OCC5(CN6CC[C@H](F)C6)CC5)nc(N5CCOCC(C)(O)C5)c4c4cn(C)nc34)c12 (stereo partly drawn) [Example 231, 4-[4-(8-ethyl-7-fluoro-3-hydroxy-1-naphthyl)-5-fluoro-2-methyl-7-[[1-[[(3S)-3-fluoropyrrolidin-1-yl]methyl]cyclopropyl]methoxy]pyrazolo[4,3-f]quinazolin-9-yl]-6-methyl-1,4-oxazepan-6-ol] | – | ≤ 10 | ≤ 10 |
| Cc1cc2[nH]ncc2c(-c2cc3nc(OC[C@@]45CCCN4C[C@H](F)C5)nc(N4CCCn5nc(C(=O)N(C)C)cc5C4)c3c3cn(C)nc23)c1C [Example 60, 5-[4-(5,6-dimethyl-1H-indazol-4-yl)-2-methyl-7-[[(2R,8S)-2-fluoro-1,2,3,5,6,7-hexahydropyrrolizin-8-yl]methoxy]pyrazolo[4,3-f]quinazolin-9-yl]-N,N-dimethyl-4,6,7,8-tetrahydropyrazolo[1,5-a][1,4]diazepine-2-carboxamide] | – | 10 to 100 | 100 to 10000 |

Now from value to compound:

| KRAS^WT NEA (KRAS WT) | IC50 (KRAS G12D) [nM] | IC50 (KRAS WT) [nM] | SMILES |
| --- | --- | --- | --- |
| D (<49% inhibition at 10 μM) | 100 to 10000 | – | C#Cc1c(F)ccc2cc(O)cc(-c3cc4nc(OC[C@@]56CCCN5C[C@H](F)C6)nc(N5CCCNCC5)c4c4cn(C)nc34)c12 (single isomer, unassigned) [Example 35] |
| – | ≤ 10 | ≤ 10 | CCc1c(F)ccc2cc(O)cc(-c3c(F)c4nc(OC[C@@]56CCCN5C[C@H](F)C6)nc(N5CCOC[C@@](C)(O)C5)c4c4cn(C)nc34)c12 [Example 109, (6S)-4-[4-(8-ethyl-7-fluoro-3-hydroxy-1-naphthyl)-5-fluoro-2-methyl-7-[[(2R,8S)-2-fluoro-1,2,3,5,6,7-hexahydropyrrolizin-8-yl]methoxy]pyrazolo[4,3-f]quinazolin-9-yl]-6-methyl-1,4-oxazepan-6-ol] |
| – | ≤ 10 | 100 to 10000 | CCc1c(F)ccc2cc(O)cc(-c3c(F)c4nc(OCC5(CF)COC5)nc(N5CC6CCC(C5)N6)c4c4cn(C)nc34)c12 [Example 167, 4-[9-(3,8-diazabicyclo[3.2.1]octan-3-yl)-5-fluoro-7-[[3-(fluoromethyl)oxetan-3-yl]methoxy]-2-methyl-pyrazolo[4,3-f]quinazolin-4-yl]-5-ethyl-6-fluoro-naphthalen-2-ol] |
| – | ≤ 10 | ≤ 10 | CCc1c(F)ccc2cc(O)cc(-c3c(F)c4nc(OCC56CCCN5CC(=C(F)F)C6)nc(N5CCOCC(C)(O)C5)c4c4cn(C)nc34)c12 (stereo not drawn) [Example 235, 4-[7-[[6-(difluoromethylene)-2,3,5,7-tetrahydro-1H-pyrrolizin-8-yl]methoxy]-4-(8-ethyl-7-fluoro-3-hydroxy-1-naphthyl)-5-fluoro-2-methyl-pyrazolo[4,3-f]quinazolin-9-yl]-6-methyl-1,4-oxazepan-6-ol] |
| – | ≤ 10 | ≤ 10 | CCNC(=O)c1cc2n(n1)CCCN(c1nc(OC[C@@]34CCCN3C[C@H](F)C4)nc3c(C)c(-c4cc(O)cc5ccc(F)c(CC)c45)c4nn(C)cc4c13)C2 [Example 181, N-ethyl-5-[4-(8-ethyl-7-fluoro-3-hydroxy-1-naphthyl)-7-[[(2R,8S)-2-fluoro-1,2,3,5,6,7-hexahydropyrrolizin-8-yl]methoxy]-2,5-dimethyl-pyrazolo[4,3-f]quinazolin-9-yl]-4,6,7,8-tetrahydropyrazolo[1,5-a][1,4]diazepine-2-carboxamide] |
| – | ≤ 10 | 10 to 100 | CCc1c(F)ccc2cc(O)cc(-c3c(C)c4nc(OC[C@]5(C)CCCN5C)nc(N5CCC[C@@](C)(O)C5)c4c4cn(C)nc34)c12 [Example 234] |
| – | ≤ 10 | ≤ 10 | CCc1c(F)ccc2cc(O)cc(-c3cc4nc(OC[C@@]56CCCN5C[C@H](F)C6)nc(N5CCCC6(CC(O)C6)C5)c4c4cn(C)nc34)c12 (stereo partly drawn) [Example 136, 6-[4-(8-ethyl-7-fluoro-3-hydroxy-1-naphthyl)-2-methyl-7-[[(2R,8S)-2-fluoro-1,2,3,5,6,7-hexahydropyrrolizin-8-yl]methoxy]pyrazolo[4,3-f]quinazolin-9-yl]-6-azaspiro[3.5]nonan-2-ol] |
